Experimental data from ChEMBL document CHEMBL4028831, “Improvement of hERG-ROMK index of spirocyclic ROMK inhibitors through scaffold optimization and incorporation of novel pharmacophores” (Bioorg Med Chem Lett, 2017).
The source made the active and inactive calls. No cut-off for these calls is given here.

Legend:
[1] = target: Sodium channel protein type 5 subunit alpha (Homo sapiens, UniProt Q14524); test: Inhibition of Nav1.5 (unknown origin)
Cavia porcellus [2] = test: Cardiotoxicity in anesthetized cardiovascular guinea pig model assessed as prolongation of QTc interval at 10 mg/kg administered as iv infusion relative to control; format: toxicity, organism-based; conditions: in vivo
[3] = Fraction unbound in rat plasma; format: ADME, cell-free
Rattus norvegicus [4] = test: Antihypertensive activity in rat spontaneous hypertensive model assessed as induction of kaliuresis at 3 mg/kg, po qd measured after 3 days; format: functional, organism-based
[5] = Unbound fraction in guinea pig plasma at 7 mg/kg administered as iv infusion; format: ADME, organism-based, Cavia porcellus; conditions: in vivo
Cytochrome P450 3A4 [6] = target: T1, Cytochrome P450 3A4 (Homo sapiens, UniProt P08684); test: Time dependent inhibition of CYP3A4 (unknown origin) in absence of NADPH; format: ADME
T1 sequence (P08684 whole entry): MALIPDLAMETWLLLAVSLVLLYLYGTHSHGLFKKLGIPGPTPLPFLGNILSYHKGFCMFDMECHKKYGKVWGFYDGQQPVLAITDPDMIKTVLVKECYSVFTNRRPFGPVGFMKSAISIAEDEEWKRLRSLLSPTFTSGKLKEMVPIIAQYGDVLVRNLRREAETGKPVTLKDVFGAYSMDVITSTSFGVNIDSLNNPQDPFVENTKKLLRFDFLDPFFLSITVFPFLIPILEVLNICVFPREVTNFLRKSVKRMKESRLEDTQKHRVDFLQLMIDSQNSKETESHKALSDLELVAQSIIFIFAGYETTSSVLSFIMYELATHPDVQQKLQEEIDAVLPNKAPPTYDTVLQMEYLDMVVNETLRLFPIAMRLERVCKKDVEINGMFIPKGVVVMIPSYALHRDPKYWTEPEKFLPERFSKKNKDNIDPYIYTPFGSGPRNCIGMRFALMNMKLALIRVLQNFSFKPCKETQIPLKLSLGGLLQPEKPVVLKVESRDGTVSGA

Rattus norvegicus [7] = test: Antihypertensive activity in rat spontaneous hypertensive model assessed as change in systolic blood pressure at 3 mg/kg, po qd measured after 3 days; format: functional
[8] = Volume of distribution at steady state in Wistar Han rat at 1 mg/kg, iv or 2 mg/kg, po; conditions: in vivo
[9] = Unbound fraction in guinea pig plasma at 10 mg/kg administered as iv infusion; format: ADME, organism-based, Cavia porcellus; conditions: in vivo
[10] = Clearance in Beagle dog at 1 mg/kg, iv; format: ADME, organism-based, Canis lupus familiaris; conditions: in vivo
Rattus norvegicus [11] = test: Antihypertensive activity in rat spontaneous hypertensive model assessed as induction of diuresis at 3 mg/kg, po qd measured after 3 days; format: functional, organism-based
Cytochrome P450 3A4 [12] = target: T1, Cytochrome P450 3A4; test: Inhibition of CYP3A4 (unknown origin); format: ADME
[13] = target: T2, Inward rectifier potassium channel 2 (Homo sapiens, UniProt P63252); test: Inhibition of Kir2.1 (unknown origin)
T2 sequence (P63252 whole entry): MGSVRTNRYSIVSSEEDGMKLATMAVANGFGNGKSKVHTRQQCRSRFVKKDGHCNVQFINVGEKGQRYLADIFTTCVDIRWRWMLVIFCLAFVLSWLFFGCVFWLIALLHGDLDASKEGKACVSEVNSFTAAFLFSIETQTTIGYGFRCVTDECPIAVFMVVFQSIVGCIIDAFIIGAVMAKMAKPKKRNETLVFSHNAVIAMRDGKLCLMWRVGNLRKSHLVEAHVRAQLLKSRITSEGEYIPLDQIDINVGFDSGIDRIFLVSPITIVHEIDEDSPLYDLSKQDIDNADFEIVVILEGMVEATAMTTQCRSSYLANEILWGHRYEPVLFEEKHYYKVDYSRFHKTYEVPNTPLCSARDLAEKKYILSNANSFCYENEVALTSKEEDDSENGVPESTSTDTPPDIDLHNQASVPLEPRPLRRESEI

in vivo = conditions: Wistar Han, rat, po, 2 mg/kg
Cavia porcellus [14] = test: Cardiotoxicity in anesthetized cardiovascular guinea pig model assessed as prolongation of QTc interval administered as iv infusion; format: toxicity, organism-based; conditions: in vivo
[15] = Volume of distribution at steady state in Beagle dog at 1 mg/kg, iv; format: ADME, organism-based, Canis lupus familiaris; conditions: in vivo, read-out: Vdss
Rattus norvegicus [16] = test: Antihypertensive activity in rat spontaneous hypertensive model assessed as induction of natriuresis at 3 mg/kg, po qd measured after 3 days; format: functional, organism-based
[17] = target: Voltage-dependent L-type calcium channel subunit alpha-1C (Homo sapiens, UniProt Q13936); test: Inhibition of Cav1.2 (unknown origin)
Sequence of Voltage-dependent L-type calcium channel subunit alpha-1C (Q13936 whole entry): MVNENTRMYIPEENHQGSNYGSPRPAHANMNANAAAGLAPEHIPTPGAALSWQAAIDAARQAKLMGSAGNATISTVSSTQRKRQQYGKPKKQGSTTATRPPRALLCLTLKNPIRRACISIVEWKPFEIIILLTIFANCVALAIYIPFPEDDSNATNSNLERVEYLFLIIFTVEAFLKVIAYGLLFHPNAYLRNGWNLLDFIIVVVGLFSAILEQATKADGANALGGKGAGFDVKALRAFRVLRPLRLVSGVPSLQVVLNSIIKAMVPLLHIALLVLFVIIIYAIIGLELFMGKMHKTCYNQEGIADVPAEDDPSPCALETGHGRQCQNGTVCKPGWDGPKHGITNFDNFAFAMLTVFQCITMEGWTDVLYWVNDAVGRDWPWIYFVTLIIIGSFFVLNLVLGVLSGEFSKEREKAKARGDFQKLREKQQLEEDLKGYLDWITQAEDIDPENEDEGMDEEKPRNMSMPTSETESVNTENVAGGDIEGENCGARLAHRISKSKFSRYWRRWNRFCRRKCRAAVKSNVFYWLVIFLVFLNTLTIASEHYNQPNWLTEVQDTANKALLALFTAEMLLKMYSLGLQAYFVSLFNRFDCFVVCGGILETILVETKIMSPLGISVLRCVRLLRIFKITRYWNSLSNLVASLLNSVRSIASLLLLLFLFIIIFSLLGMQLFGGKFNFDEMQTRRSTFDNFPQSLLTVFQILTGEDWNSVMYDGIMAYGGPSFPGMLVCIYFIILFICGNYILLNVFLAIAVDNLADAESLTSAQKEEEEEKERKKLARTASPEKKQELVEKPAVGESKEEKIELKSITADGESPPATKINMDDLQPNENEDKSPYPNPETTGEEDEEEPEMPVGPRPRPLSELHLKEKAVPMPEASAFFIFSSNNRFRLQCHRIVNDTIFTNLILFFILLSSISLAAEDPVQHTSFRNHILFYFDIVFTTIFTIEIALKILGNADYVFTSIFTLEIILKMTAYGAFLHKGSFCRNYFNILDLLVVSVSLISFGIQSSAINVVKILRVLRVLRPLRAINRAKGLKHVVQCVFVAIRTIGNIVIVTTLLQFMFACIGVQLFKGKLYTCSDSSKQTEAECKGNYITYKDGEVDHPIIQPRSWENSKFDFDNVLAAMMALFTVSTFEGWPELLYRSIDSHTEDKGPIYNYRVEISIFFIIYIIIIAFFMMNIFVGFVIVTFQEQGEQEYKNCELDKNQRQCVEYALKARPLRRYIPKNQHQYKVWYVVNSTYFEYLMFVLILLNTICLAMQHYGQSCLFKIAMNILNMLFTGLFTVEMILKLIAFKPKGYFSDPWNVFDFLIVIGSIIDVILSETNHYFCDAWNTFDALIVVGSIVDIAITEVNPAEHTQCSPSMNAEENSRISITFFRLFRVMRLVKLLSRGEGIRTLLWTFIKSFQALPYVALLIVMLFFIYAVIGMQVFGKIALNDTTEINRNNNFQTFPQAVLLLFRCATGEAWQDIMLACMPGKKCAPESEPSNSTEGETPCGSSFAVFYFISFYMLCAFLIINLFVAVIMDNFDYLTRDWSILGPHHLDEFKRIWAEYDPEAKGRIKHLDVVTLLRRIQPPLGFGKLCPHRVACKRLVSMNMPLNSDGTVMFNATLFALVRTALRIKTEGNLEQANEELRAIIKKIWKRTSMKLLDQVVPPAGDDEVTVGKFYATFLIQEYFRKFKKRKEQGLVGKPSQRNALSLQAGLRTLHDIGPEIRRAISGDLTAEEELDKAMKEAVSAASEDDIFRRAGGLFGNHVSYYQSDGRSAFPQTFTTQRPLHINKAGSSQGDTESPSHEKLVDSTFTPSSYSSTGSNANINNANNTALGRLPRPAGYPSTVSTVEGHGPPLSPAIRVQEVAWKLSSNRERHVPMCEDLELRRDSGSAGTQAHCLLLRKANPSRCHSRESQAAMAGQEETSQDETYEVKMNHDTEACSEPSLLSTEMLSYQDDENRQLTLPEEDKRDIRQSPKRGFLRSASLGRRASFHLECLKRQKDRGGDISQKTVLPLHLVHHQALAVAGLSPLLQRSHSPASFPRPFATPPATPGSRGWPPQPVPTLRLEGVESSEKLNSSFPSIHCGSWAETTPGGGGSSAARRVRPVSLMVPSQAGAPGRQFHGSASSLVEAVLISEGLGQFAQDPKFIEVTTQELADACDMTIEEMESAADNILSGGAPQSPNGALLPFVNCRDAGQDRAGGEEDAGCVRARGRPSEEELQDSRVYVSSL

[18] = Half life in Beagle dog at 1 mg/kg, iv; format: ADME, organism-based, Canis lupus familiaris; conditions: in vivo
[19] = target: Sodium-dependent serotonin transporter (Homo sapiens, UniProt P31645); test: Inhibition of human SERT
Sequence of Sodium-dependent serotonin transporter (P31645 whole entry, the tested form may be a part): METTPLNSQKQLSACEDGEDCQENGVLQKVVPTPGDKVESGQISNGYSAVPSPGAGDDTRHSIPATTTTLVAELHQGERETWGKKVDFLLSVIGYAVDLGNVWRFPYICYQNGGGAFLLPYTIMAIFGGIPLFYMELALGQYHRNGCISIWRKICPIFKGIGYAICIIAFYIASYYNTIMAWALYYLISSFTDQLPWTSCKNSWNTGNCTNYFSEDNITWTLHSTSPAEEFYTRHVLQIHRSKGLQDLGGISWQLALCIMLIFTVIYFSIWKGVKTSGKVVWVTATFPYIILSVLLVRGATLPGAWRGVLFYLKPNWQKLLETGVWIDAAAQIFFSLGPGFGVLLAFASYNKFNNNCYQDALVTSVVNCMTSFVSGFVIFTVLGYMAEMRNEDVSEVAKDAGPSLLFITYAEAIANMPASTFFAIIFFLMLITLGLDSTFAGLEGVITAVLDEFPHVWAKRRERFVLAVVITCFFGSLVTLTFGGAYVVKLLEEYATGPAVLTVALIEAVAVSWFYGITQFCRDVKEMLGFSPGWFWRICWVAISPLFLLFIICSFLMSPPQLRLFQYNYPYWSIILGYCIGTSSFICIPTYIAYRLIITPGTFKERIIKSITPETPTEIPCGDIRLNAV

[20] = Unbound fraction in guinea pig plasma at 3 mg/kg administered as iv infusion; format: ADME, organism-based, Cavia porcellus; conditions: in vivo
Cytochrome P450 2C8 = target: T3, Cytochrome P450 2C8 (Homo sapiens, UniProt P10632); test: Inhibition of CYP2C8 (unknown origin); format: ADME
T3 sequence (P10632 whole entry): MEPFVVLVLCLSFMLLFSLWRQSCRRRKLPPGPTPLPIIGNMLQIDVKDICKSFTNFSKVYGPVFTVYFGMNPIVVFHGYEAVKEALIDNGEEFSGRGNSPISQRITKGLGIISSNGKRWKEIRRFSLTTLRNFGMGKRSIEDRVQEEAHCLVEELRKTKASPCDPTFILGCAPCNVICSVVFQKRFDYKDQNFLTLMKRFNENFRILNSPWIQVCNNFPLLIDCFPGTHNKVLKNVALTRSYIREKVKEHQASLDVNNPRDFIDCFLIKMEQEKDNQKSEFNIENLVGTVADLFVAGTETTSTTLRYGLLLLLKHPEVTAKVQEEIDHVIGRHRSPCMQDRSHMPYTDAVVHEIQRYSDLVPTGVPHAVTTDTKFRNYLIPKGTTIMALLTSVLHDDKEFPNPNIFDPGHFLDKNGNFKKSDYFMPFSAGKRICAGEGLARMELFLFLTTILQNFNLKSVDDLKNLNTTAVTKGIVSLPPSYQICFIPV

Cytochrome P450 2D6 = Cytochrome P450 2D6 (Homo sapiens, UniProt P10635); test: Inhibition of CYP2D6 (unknown origin); format: ADME
Sequence of Cytochrome P450 2D6 (P10635 whole entry): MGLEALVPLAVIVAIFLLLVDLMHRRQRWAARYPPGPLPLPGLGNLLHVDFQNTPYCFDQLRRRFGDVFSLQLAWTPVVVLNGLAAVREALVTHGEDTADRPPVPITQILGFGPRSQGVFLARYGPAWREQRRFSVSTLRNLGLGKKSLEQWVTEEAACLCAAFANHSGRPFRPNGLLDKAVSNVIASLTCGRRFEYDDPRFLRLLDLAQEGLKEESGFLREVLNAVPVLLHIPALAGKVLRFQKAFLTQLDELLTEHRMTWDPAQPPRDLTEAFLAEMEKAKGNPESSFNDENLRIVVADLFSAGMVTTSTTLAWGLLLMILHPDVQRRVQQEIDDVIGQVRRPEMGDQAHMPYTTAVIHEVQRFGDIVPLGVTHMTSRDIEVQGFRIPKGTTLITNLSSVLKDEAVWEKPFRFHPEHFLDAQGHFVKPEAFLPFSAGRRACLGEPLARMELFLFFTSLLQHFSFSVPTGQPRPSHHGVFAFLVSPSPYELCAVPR

[21] = target: T4, Nuclear receptor subfamily 1 group I member 2 (Homo sapiens, UniProt O75469); test: Activity at PXR (unknown origin) assessed as CYP induction
T4 sequence (O75469 whole entry): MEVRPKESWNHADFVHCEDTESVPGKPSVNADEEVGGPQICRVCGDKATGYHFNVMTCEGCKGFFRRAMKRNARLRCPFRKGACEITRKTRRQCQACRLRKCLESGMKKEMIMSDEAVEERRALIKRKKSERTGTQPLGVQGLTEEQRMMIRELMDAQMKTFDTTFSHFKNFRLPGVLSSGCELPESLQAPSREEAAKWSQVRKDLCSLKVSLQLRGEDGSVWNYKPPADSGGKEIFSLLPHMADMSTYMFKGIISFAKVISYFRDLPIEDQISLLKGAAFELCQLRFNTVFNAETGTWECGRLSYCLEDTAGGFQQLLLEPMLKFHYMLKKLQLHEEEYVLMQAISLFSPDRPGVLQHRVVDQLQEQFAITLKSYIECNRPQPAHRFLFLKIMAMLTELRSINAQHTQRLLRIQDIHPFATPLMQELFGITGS

Cavia porcellus [22] = test: Cardiotoxicity in anesthetized cardiovascular guinea pig model assessed as prolongation of QTc interval at 3 mg/kg administered as iv infusion relative to control; format: toxicity, organism-based; conditions: in vivo
[23] = Half life in Wistar Han rat at 1 mg/kg, iv or 2 mg/kg, po; conditions: in vivo

Cc1c([C@@H](O)CN2CCC3(CC2)CCN(c2ccc(=O)n(C)n2)C3=O)ccc2c1COC2=O
IC50 [1]: > 30 µM
Activity (Cavia porcellus [2]): 16%
fraction unbound [3]: 0.455
Activity (Rattus norvegicus [4]): inactive
Cp(f) [5]: 13.5 µM
IC50 (Cytochrome P450 3A4 [6]): > 50 µM
Activity (Rattus norvegicus [7]): -14 mmHg
Vd [8]: 3.3 L/kg
Cp(f) [9]: 22.5 µM
clearance [10]: 18.3 mL/min/kg
Activity (Rattus norvegicus [11]): Active
IC50 (Cytochrome P450 3A4 [12]): > 50 µM
IC50 [13]: > 100 µM
bioavailability (in vivo): 78%
Activity (Cavia porcellus [14]): Dose-dependent effect
Vd [15]: 5 L/kg
Activity (Rattus norvegicus [16]): Active
IC50 [17]: > 30 µM
half-life [18]: 5.8 h
IC50 [19]: 10.4 µM
Cp(f) [20]: 5.3 µM
IC50 (Cytochrome P450 2C8): > 50 µM
IC50 (Cytochrome P450 2D6): > 50 µM
IC50 [21]: > 30 µM
Activity (Cavia porcellus [22]): 9%
half-life [23]: 2.8 h
